Experimental data: article PMC6754500, “Ultra-long-acting tunable biodegradable and removable controlled release implants for drug delivery” (Nature Communications, 2019)
Values after ≈ are worked out from the molar mass of the structure shown. Counter-ions that a name gives are not always drawn. Like-named read-outs stand apart in the source and are kept apart here.

Experiments:
[1] = Saturation concentration (solubility) of drugs in NMP; type: physicochemical; conditions: quantified by HPLC; for solubility at 24 h: 40 °C, organic solvent or mixture, thermodynamic from solid
Procedure: The saturation concentration of a panel of fourteen (14) antiretroviral drugs in NMP was determined. For each drug, 100 mg was weighed into individual vials and 100 mg of NMP was added to each vial. The mixture was stirred at 40 °C for 24 h. […] Sample aliquots (1–2 mg, n = 4) were collected from the saturated supernatant and diluted with acetonitrile (ACN). Drug concentration in the saturated aliquots was determined by HPLC analysis.

[2] = cited from earlier work; for pKa: Supplementary Table 1; for LogP: log of drug partition coefficient, ref drugbank.ca
HIV-1 = conditions: cited from earlier work; for IC90: Supplementary Table 1
HIV-1JR-CSF = assay: In vitro HIV-1 inhibition in TZM-bl cells; type: cell-based; conditions: Human immunodeficiency virus 1, read-out: Effective concentration required to inhibit virus replication by 50% (IC50), DTG eluted (24 h in PBS) from solidified DTG-ISFI stored 6 months at 25 °C
Procedure: DTG-ISFI formulation was stored for 6 months at 25 °C and then solidified in PBS. The concentration of DTG eluted from the solidified implant after 24 h incubation in PBS was determined by HPLC and its HIV inhibitory activity was assessed using TZM-bl cells as described in the methods section.
Viral particles were collected in tissue culture medium that was centrifugated at 2000×g for 20 min at 4 °C to remove cell debris. […] Infected TZM-bl cells were stained using a solution containing 4 µM potassium ferrocyanide, 4 µM potassium ferricyanide, 2 µM magnesium chloride, 0.4 mg/ml X-gal[55],[56] and stained cells counted. TZM-bl cells were cultured at 37 °C 10% CO2 in TZM-bl medium (Dulbecco’s Modified Eagle Medium (Sigma) supplemented with 10% heat-inactivated fetal bovine serum, 25 mM HEPES, 500 units/ml penicillin, 50 µg/ml streptomycin and 2 mM L-glutamine (Cellgro)), and regularly checked for morphology by microscope.
Cells were regularly checked for morphology by microscopy. […] Luciferase activity was measured with a SpectraMax M3 Spectrometer (Molecular Devices, Sunnyvale, CA) and the results normalized to the luciferase activity of cells infected with HIV in the absence of DTG and expressed as a percentage of decrease in luciferase activity. Activity was measured in 3 independent experiments, each dilution measured in quadruplicate.

[3] = Saturation solubility in PBS with or without 2% solutol; type: physicochemical; conditions: for solubility: HPLC
[4] = pH 7; cited from earlier work

COC(=O)N[C@H](C(=O)N[C@@H](Cc1ccccc1)[C@@H](O)CN(Cc1ccc(-c2ccccn2)cc1)NC(=O)[C@@H](NC(=O)OC)C(C)(C)C)C(C)(C)C [Atazanavir]
solubility at 24 h ([1]; N-methyl-2-pyrrolidone (NMP)): 328 ± 2 mg/mL (≈ 465 mM)
pKa [2]: 4.3
LogP [2]: 4.5
Protein-adjusted IC90 (PA-IC90) (HIV-1): 14 ng/mL

CC(C)CN(C[C@@H](O)[C@H](Cc1ccccc1)NC(=O)O[C@H]1CO[C@H]2OCC[C@H]21)S(=O)(=O)c1ccc(N)cc1 [Darunavir]
solubility at 24 h ([1]; N-methyl-2-pyrrolidone): 511 ± 2 mg/mL (≈ 933 mM)
IC90 (HIV-1): 2.43 ng/mL (≈ 4.44e-06 mM)
Protein-adjusted IC90 (PA-IC90) (HIV-1): 2.4 ng/mL

C[C@@H]1CCO[C@H]2Cn3cc(C(=O)NCc4ccc(F)cc4F)c(=O)c(O)c3C(=O)N12 [Dolutegravir]
solubility at 24 h ([1]; N-methyl-2-pyrrolidone (NMP)): 255 ± 4 mg/mL (≈ 608 mM)
IC50 (HIV-1JR-CSF): 2.1 ng/mL (≈ 5.01e-06 mM)
Solubility in PBS + 2% solutol relative to PBS with no solutol ([3]; 37 °C): ~ 6 fold
solubility ([3]; PBS + 2% solutol, pH 7.4, aqueous with cosolvent or surfactant or cyclodextrin, thermodynamic from solid, 37 °C): 564 ± 3.6 µg/mL
solubility ([3]; PBS with no solutol, 37 °C, read-out: Solubility in PBS with no solutol): 91 µg/mL (≈ 0.217 mM)
LogP [2]: 2.2
in vitro protein-adjusted IC90 for HIV-1 (HIV-1): 0.064 µg/mL

O=C1Nc2ccc(Cl)cc2[C@@](C#CC2CC2)(C(F)(F)F)O1 [Efavirenz]
solubility at 24 h ([1]; N-methyl-2-pyrrolidone (NMP)): 118 ± 2 mg/mL (≈ 374 mM)
LogP [2]: 4.6

Nc1nc(=O)n([C@@H]2CS[C@H](CO)O2)cc1F [Emtricitabine]
solubility at 24 h ([1]; N-methyl-2-pyrrolidone (NMP)): 202 ± 3 mg/mL (≈ 817 mM)
IC90 (HIV-1): 51 ng/mL (≈ 0.000206 mM)

Cc1cc(C#N)cc(C)c1Oc1nc(Nc2ccc(C#N)cc2)nc(N)c1Br [Etravirine]
solubility at 24 h ([1]; N-methyl-2-pyrrolidone (NMP)): 122 ± 2 mg/mL (≈ 280 mM)
pKa [2]: 3.75
LogP [2]: 5.54
IC90 (HIV-1): 1.3 ng/mL (≈ 2.99e-06 mM)

Nc1ccn([C@@H]2CS[C@H](CO)O2)c(=O)n1 [Lamivudine]
solubility at 24 h ([1]; N-methyl-2-pyrrolidone (NMP)): 250 ± 3 mg/mL (≈ 1090 mM)

CCN1C[C@H](C)n2c(c(O)c3c(=O)n(Cc4ccc(F)c(Cl)c4)nc(C(=O)NC)c32)C1=O [MK-2048]
Saturation solubility in NMP ([1]; N-methyl-2-pyrrolidone): 715 ± 5 mg/mL
Solubility in PBS + 2% solutol relative to PBS with no solutol ([3]; pH 7.4): ~ 9 fold
Solubility in water [4]: < 0.1 mg/mL
in vitro 90% inhibitory concentration (IC90) (HIV-1; against HIV-1): ~ 0.033 μg/mL
Protein-adjusted IC90 (PA-IC90) (HIV-1): 33 ng/mL

Cc1ccnc2c1NC(=O)c1cccnc1N2C1CC1 [Nevirapine]
pKa [2]: 2.8
LogP [2]: 2.5
IC90 (HIV-1): 40 ng/mL (≈ 0.00015 mM)

Cc1nnc(C(=O)NC(C)(C)c2nc(C(=O)NCc3ccc(F)cc3)c(O)c(=O)n2C)o1 [Raltegravir]
solubility at 24 h ([1]; N-methyl-2-pyrrolidone): 54 ± 2 mg/mL (≈ 122 mM)
pKa [2]: 6.3
LogP [2]: -0.39
IC90 (HIV-1): 0.53 ng/mL (≈ 1.19e-06 mM)

Cc1cc(/C=C/C#N)cc(C)c1Nc1ccnc(Nc2ccc(C#N)cc2)n1 [Rilpivirine]
solubility at 24 h ([1]; N-methyl-2-pyrrolidone (NMP)): 228 ± 5 mg/mL (≈ 622 mM)
LogP [2]: 4.86
IC90 (HIV-1): 12.5 ng/mL (≈ 3.41e-05 mM)
Protein-adjusted IC90 (PA-IC90) (HIV-1): 12 ng/mL

CC(C)c1nc(CN(C)C(=O)N[C@H](C(=O)N[C@@H](Cc2ccccc2)C[C@H](O)[C@H](Cc2ccccc2)NC(=O)OCc2cncs2)C(C)C)cs1 [Ritonavir]
IC90 (HIV-1): 2100 ng/mL (≈ 0.00291 mM)

Cc1cn([C@H]2C=C[C@@H](CO)O2)c(=O)[nH]c1=O [Stavudine]
solubility at 24 h ([1]; N-methyl-2-pyrrolidone (NMP)): 248 ± 3 mg/mL (≈ 1110 mM)
pKa [2]: 10.26
LogP [2]: -0.7
IC90 (HIV-1): 30 to 300 ng/mL

CC(C)OC(=O)OCOP(=O)(CO[C@H](C)Cn1cnc2c(N)ncnc21)OCOC(=O)OC(C)C [TenofovirDisoproxil Fumarate]
solubility at 24 h ([1]; N-methyl-2-pyrrolidone (NMP)): 156 ± 2 mg/mL
IC90 (HIV-1): 5.54 ng/mL
